Assay results as given in patent US12077531B2, “Imidazopyridinone compound” (KISSEI PHARMACEUTICAL CO., LTD., priority 2018, dated 2024).
Structures can show the parent of a compound that is named as a salt.

Target: human PHD2184-418 (Homo sapiens (Human), UniProt Q9GZT9)
Experiment: PHD2 inhibitory test (fluorescence polarization, binding between PHD2 and HIF-1α)
Details: human PHD2184-418, FITC-labeled HIF-1α556-574, 2 μM 2-oxoglutarate, 37° C. 60 minutes
Method: Test Example 1 PHD2 Inhibitory Test
(1) Expression and Preparation of Human PHD2184-418
Human PHD2184-418 containing amino acid residues 184 to 418 of the protein represented by CAC42509 (GenBank accession ID) was expressed and prepared by the following method.
An expression construct of human PHD2184-418 containing N-terminal histidine tag was introduced into pET-30a (+) vector, and the sequence was confirmed. This vector was introduced into BL21 (DE3) strain and cultured at 37° C. in LB medium containing antibiotics. After culturing, a cell lysis solution was added to the cells, and then the cells were disrupted by sonication. The disrupted suspension was centrifuged and the supernatant was purified by Ni column to give human PHD2184-418.
Human HIF-1α556-574 (FITC-labeled HIF-1α556-574), containing N-terminal FITC-Ahx, containing amino acid residues 556 to 574 (partial peptide) of HIF-1α was used as a substrate. Using FITC-labeled HIF-1α556-574, the competitive inhibition between 2-oxoglutarate and test compounds (PHD inhibitor) was evaluated based on the change in fluorescence polarization by the following method.
An enzyme (human PHD2184-418) and the substrate were diluted with an assay buffer (pH 7.4) containing 10 mM HEPES, 150 mM NaCl, 10 μM MnCl2-4H2O, 2 μM 2-oxoglutarate and 0.05% Tween-20. Test compounds were diluted with DMSO. Test compounds and human PHD2184-418 was added to the 384-well plate (Corning, black, opaque bottom) in advance. The reaction was started by the addition of FITC-labeled HIF-1α556-574. After incubating at 37° C. for 60 minutes, fluorescence polarization (excitation wavelength: 470 nm, fluorescence wavelength: 530 nm) was measured by PHERAstar FSX (BMG Labtech). Fluorescence polarization of each well was measured, and human PHD2 binding inhibitory activity of test compounds was calculated based on the value of test compound-free group.

Chain of human PHD2184-418 (Q9GZT9 184-418): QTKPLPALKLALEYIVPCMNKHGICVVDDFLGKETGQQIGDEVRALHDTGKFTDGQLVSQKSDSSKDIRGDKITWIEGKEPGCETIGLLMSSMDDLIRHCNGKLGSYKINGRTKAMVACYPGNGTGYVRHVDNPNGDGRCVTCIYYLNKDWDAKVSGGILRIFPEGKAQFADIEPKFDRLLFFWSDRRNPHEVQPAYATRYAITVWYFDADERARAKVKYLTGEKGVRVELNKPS

IC50 | Structure (SMILES)
0.32 µM | Cn1ccnc1CN1CC[C@H](n2c(=O)n(-c3ccc(-c4ccc(O)c(C(=O)O)c4)cc3)c3cccnc32)C1 [Example 42, (S)-4-Hydroxy-4′-(3-(1-((1-methyl-1H-imidazol-2-yl)methyl)pyrrolidin-3-yl)-2-oxo-2,3-dihydro-1H-imidazo[4,5-b]pyridin-1-yl)-[1,1′-biphenyl]-3-carboxylic acid]
0.97 µM | Cn1ccnc1CN1CC[C@H](n2c(=O)n(-c3ccc(-c4ccc(C(=O)O)cc4O)cc3)c3cccnc32)C1 [Example 44, (S)-2-Hydroxy-4′-(3-(1-((1-methyl-1H-imidazol-2-yl)methyl)pyrrolidin-3-yl)-2-oxo-2,3-dihydro-1H-imidazo[4,5-b]pyridin-1-yl)-[1,1′-biphenyl]-4-carboxylic acid]
0.35 µM | Cc1cc(-c2ccc(C(=O)O)cc2)ccc1-n1c(=O)n([C@@H]2CCN(Cc3nccn3C)C2)c2ncccc21 [Example 48, (R)-3′-Methyl-4′-(3-(1-((1-methyl-1H-imidazol-2-yl)methyl)pyrrolidin-3-yl)-2-oxo-2,3-dihydro-1H-imidazo[4,5-b]pyridin-1-yl)-[1,1′-biphenyl]-4-carboxylic acid]
0.14 µM | Cc1cc(C(=O)O)ccc1-c1ccc(-n2c(=O)n([C@H]3CCN(Cc4ncc(C(=O)O)n4C)C3)c3ncccc32)cn1 [Example 50, (S)-2-((3-(1-(6-(4-Carboxy-2-methylphenyl)pyridin-3-yl)-2-oxo-1,2-dihydro-3H-imidazo[4,5-b]pyridin-3-yl)pyrrolidin-1-yl)methyl)-1-methyl-1H-imidazole-5-carboxylic acid]
0.14 µM | O=C(O)c1ccnc(CN2CC[C@H](n3c(=O)n(-c4ccc(-c5ccc(O)c(C(=O)O)c5)c(O)c4)c4cccnc43)C2)c1 [Example 51, (S)-2-((3-(1-(3′-Carboxy-2,4′-dihydroxy-[1,1′-biphenyl]-4-yl)-2-oxo-1,2-dihydro-3H-imidazo[4,5-b]pyridin-3-yl)pyrrolidin-1-yl)methyl)isonicotinic acid]
0.28 µM | O=C(O)c1ccnc(CN2CC[C@H](n3c(=O)n(-c4ccc(-c5ccc(O)c(C(=O)O)c5)nc4)c4cccnc43)C2)c1 [Example 52, (S)-2-((3-(1-(6-(3-Carboxy-4-hydroxyphenyl)pyridin-3-yl)-2-oxo-1,2-dihydro-3H-imidazo[4,5-b]pyridin-3-yl)pyrrolidin-1-yl)methyl)isonicotinic acid]
0.14 µM | O=C(O)c1ccnc(CN2CC[C@H](n3c(=O)n(-c4ccc(-c5ccc(O)c(C(=O)O)c5)cc4O)c4cccnc43)C2)c1 [Example 53, (S)-2-((3-(1-(3′-Carboxy-3,4′-dihydroxy-[1,1′-biphenyl]-4-yl)-2-oxo-1,2-dihydro-3H-imidazo[4,5-b]pyridin-3-yl)pyrrolidin-1-yl)methyl)isonicotinic acid]

The remaining lines, values behind:

Structure (SMILES) | IC50
Cn1c(C(=O)O)cnc1CN1CC[C@H](n2c(=O)n(-c3ccc(-c4ccc(C(=O)O)cc4)cc3)c3cc(C(F)(F)F)cnc32)C1 [Example 26, (S)-2-((3-(1-(4′-Carboxy-[1,1′-biphenyl]-4-yl)-2-oxo-6-(trifluoromethyl)-1,2-dihydro-3H-imidazo[4,5-b]pyridin-3-yl)pyrrolidin-1-yl)methyl)-1-methyl-1H-imidazole-5-carboxylic acid] | 0.13 µM
Cc1cnc2c(c1)n(-c1ccc(-c3ccc(C(=O)O)cc3)cc1)c(=O)n2[C@H]1CCN(Cc2ncc(C(=O)O)n2C)C1 [Example 27, (S)-2-((3-(1-(4′-Carboxy-[1,1′-biphenyl]-4-yl)-6-methyl-2-oxo-1,2-dihydro-3H-imidazo[4,5-b]pyridin-3-yl)pyrrolidin-1-yl)methyl)-1-methyl-1H-imidazole-5-carboxylic acid] | 0.11 µM
Cc1cc(-c2ccccc2)ccc1-n1c(=O)n([C@H]2CCN(Cc3nccn3C)C2)c2ncccc21 [Example 28, (S)-3-(1-((1-Methyl-1H-imidazol-2-yl)methyl)pyrrolidin-3-yl)-1-(3-methyl-[1,1′-biphenyl]-4-yl)-1,3-dihydro-2H-imidazo[4,5-b]pyridin-2-one] | 28.2 µM
Cc1ccccc1-c1ccc(-n2c(=O)n([C@H]3CCN(Cc4nccn4C)C3)c3ncccc32)cc1 [Example 29, (S)-3-(1-((1-Methyl-1H-imidazol-2-yl)methyl)pyrrolidin-3-yl)-1-(2′-methyl-[1,1′-biphenyl]-4-yl)-1,3-dihydro-2H-imidazo[4,5-b]pyridin-2-one] | 2.09 µM
Cc1cc(-c2ccccc2)ccc1-n1c(=O)n([C@@H]2CCN(Cc3nccn3C)C2)c2ncccc21 [Example 30, (R)-3-(1-((1-Methyl-1H-imidazol-2-yl)methyl)pyrrolidin-3-yl)-1-(3-methyl-[1,1′-biphenyl]-4-yl)-1,3-dihydro-2H-imidazo[4,5-b]pyridin-2-one] | 3.48 µM
Cc1cccnc1CN1CC[C@H](n2c(=O)n(-c3ccc(-c4ccc(F)cc4)cc3)c3cccnc32)C1 [Example 31, (S)-1-(4′-Fluoro-[1,1′-biphenyl]-4-yl)-3-(1-((3-methylpyridin-2-yl)methyl)pyrrolidin-3-yl)-1,3-dihydro-2H-imidazo[4,5-b]pyridin-2-one] | 12.5 µM
Cc1cccnc1CN1CC[C@H](n2c(=O)n(-c3ccc(-c4ccc(C#N)cc4)cc3)c3cccnc32)C1 [Example 34, (S)-4′-(3-(1-((3-Methylpyridin-2-yl)methyl)pyrrolidin-3-yl)-2-oxo-2,3-dihydro-1H-imidazo[4,5-b]pyridin-1-yl)-[1,1′-biphenyl]-4-carbonitrile] | 5.7 µM
Cc1cccnc1CN1CC[C@H](n2c(=O)n(-c3ccc(-c4ccc(OC(F)(F)F)cc4)cc3)c3cccnc32)C1 [Example 35, (S)-3-(1-((3-Methylpyridin-2-yl)methyl)pyrrolidin-3-yl)-1-(4′-(trifluoromethoxy)-[1,1′-biphenyl]-4-yl)-1,3-dihydro-2H-imidazo[4,5-b]pyridin-2-one] | 80.5 µM
Cn1ccnc1CN1CC[C@H](n2c(=O)n(-c3ccc(-c4ccncc4)cc3)c3cccnc32)C1 [Example 36, (S)-3-(1-((1-Methyl-1H-imidazol-2-yl)methyl)pyrrolidin-3-yl)-1-(4-(pyridin-4-yl)phenyl)-1,3-dihydro-2H-imidazo[4,5-b]pyridin-2-one hydrochloride] | 1.51 µM
COC(=O)c1ccc(-c2ccc(-n3c(=O)n([C@H]4CCN(Cc5nccn5C)C4)c4ncccc43)cc2)cc1 [Example 37, Methyl (S)-4′-(3-(1-((1-methyl-1H-imidazol-2-yl)methyl)pyrrolidin-3-yl)-2-oxo-2,3-dihydro-1H-imidazo[4,5-b]pyridin-1-yl)-[1,1′-biphenyl]-4-carboxylate] | 6.28 µM
COC(=O)c1ccc(-c2ccc(-n3c(=O)n([C@@H]4CCN(Cc5nccn5C)C4)c4ncccc43)c(C)c2)cc1 [Example 38, Methyl (R)-3′-methyl-4′-(3-(1-((1-methyl-1H-imidazol-2-yl)methyl)pyrrolidin-3-yl)-2-oxo-2,3-dihydro-1H-imidazo[4,5-b]pyridin-1-yl)-[1,1′-biphenyl]-4-carboxylate] | 4.63 µM

Same assay, conditions: read-out: inhibition rate at the compound concentration of 100 μM (numerals with *); compound concentration 100 μM

inhibition at 100 µM | Structure (SMILES)
41% | Cc1cccnc1CN1CC[C@H](n2c(=O)n(-c3ccc(-c4ccccc4C(F)(F)F)cc3)c3cccnc32)C1 [Example 33, (S)-3-(1-((3-Methylpyridin-2-yl)methyl)pyrrolidin-3-yl)-1-(2′-(trifluoromethyl)-[1,1′-biphenyl]-4-yl)-1,3-dihydro-2H-imidazo[4,5-b]pyridin-2-one]
